One test concerns Kuramochi cells. Nature of the test: Synthetic Lethality Assay of Cancer Cell. The class given is cell-based. Particulars: Homo sapiens; growth inhibition of Kuramochi cells in the presence of methyl methanesulfonate (MMS), 96 hours, CellTiter-Glo.
Chain of human recombinant PARG (Q86W56 whole entry): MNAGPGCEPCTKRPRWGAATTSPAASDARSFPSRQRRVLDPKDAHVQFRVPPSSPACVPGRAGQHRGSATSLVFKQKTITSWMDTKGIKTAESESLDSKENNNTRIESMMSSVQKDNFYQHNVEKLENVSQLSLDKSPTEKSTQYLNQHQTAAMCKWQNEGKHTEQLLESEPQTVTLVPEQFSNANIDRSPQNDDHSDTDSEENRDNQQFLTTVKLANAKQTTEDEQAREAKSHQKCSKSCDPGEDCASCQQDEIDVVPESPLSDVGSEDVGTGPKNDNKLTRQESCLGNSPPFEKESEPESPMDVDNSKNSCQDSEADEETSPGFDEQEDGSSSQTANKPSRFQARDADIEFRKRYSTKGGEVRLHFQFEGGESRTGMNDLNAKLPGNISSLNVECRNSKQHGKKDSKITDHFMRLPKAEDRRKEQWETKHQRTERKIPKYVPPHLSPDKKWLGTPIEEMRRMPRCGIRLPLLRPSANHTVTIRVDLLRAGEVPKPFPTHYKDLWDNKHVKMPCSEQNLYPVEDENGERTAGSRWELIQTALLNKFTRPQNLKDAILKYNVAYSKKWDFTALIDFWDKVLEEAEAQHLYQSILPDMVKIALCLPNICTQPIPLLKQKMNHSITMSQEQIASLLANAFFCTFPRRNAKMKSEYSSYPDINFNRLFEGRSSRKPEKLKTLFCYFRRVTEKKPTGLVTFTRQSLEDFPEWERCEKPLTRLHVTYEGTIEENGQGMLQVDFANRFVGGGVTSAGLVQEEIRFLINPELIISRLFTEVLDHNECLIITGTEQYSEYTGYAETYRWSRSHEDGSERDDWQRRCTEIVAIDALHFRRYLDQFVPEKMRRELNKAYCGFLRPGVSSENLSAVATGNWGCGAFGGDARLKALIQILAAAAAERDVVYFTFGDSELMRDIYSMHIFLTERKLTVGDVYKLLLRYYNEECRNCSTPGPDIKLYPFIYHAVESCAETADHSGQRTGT
Experimental: In order to evaluate the cancer cell growth inhibitory effect of the present compound, the inhibitory effect of the compound on the growth of a human ovarian cancer cell line, Kuramochi cells, was examined in the presence of methyl methanesulfonate (MMS) which is used as a DNA methylating agent.
Test compound was dissolved in dimethyl sulfoxide and prepared a 10 mM compound solution. The compound solution was then further serially diluted with dimethyl sulfoxide to prepare a concentration of 400 times test compound solution from 6 mM to 1 μM.
Kuramochi cells were purchased from the JCRB cell bank and cultured at 37° C. in the presence of 5% of CO2 using the complete medium described above. […]
Cell viability after 96 hours was measured by using CellTiter-Glo (registered trademark) Luminescent Cell Viability Assay (manufactured by Promega Corporation) according to the recommended usage.
The luminescence intensity was measured by using a luminescence detection plate reader (Envision, manufactured by PerkinElmer Inc.). The cell viability of each well was calculated as a relative value (%) of the luminescence intensity of each well to which each test compound with each concentration was added in a case where the luminescence intensity of a well to which dimethyl sulfoxide was added instead of the test compound was defined as 100%. […]
For the compound `Cn1cc(Cn2c(=O)c3cc(S(=O)(=O)NC4(C)CC4)sc3n(Cc3ccc4c(c3)CC(=O)N4)c2=O)cn1` [Ex 130, 3-((1-Methyl-1H-pyrazol-4-yl)methyl)-N-(1-methylcyclopropyl)-2,4-dioxo-1-((2-oxoindolin-5-yl)methyl)-1,2,3,4-tetrahydrothieno[2,3-d]pyrimidine-6-sulfonamide], the IC50 is 11700 nM.

For a further test, the target named is human recombinant PARG (Homo sapiens (Human), UniProt Q86W56). Nature of the test: PARG Activity Assay. The class given is biochemical. Particulars: recombinant human PARG 0.0185 nM, 1 hour pre-incubation, poly (ADP-ribose) substrate-coated plate, Abs 450. On the procedure:
In order to evaluate the PARG inhibitory activity of the present compound, the inhibitory activity of each test compound against human recombinant PARG was measured. The specific procedure is described below.
Test compound was dissolved in dimethyl sulfoxide and prepared a 10 mM stock solution.
PARG Activity Assay was performed in Streptavidin-coated 96-well plates. […] The substrate solution was added to the 96-well plate at the volume of 200 micro liter per well and incubated for 3 hours at room temperature. After the incubation, the substrate solution was discarded and assay plate was washed 4 times with 220 micro liter of PBS containing 0.1% Tween20 (PBST). […] The diluted enzyme solution was pre-incubated with compounds for 1 hour at room temperature in a 96-well plate and transferred 100 micro liter per well to the poly (ADP-ribose) substrate-coated assay plate. The plate was incubated for 1 hour at 25° C. and then washed 4 times with 220 micro liters of PBST. For the detection of non-digested poly (ADP-ribose) polymer on the plate, mouse anti-poly (ADP-ribose) antibody diluted with 0.2% BSA containing PBS was added 100 micro liters per well and incubated 1 hour at room temperature. Plate was washed 4 times with TBST and 100 micro liter of HRP-labeled anti-mouse Ig antibody was added to the wells. Plate was incubated for 30 minutes at room temperature and then washed 4 times with PBST. For the detection 100 micro liters of TMB substrate solution was added to the wells. After sufficient color development, reaction was stopped by addition of 50 micro liter of 0.2 M […]. The 450 nm absorbance (Abs 450) of each well was read with a micro plate reader. The assay was performed by duplicated and average of 2 independent assays were used for the determination of PARG inhibitor y activity.
Wells treated with dimethyl sulfoxide instead of test compound solution were designated as a Negative Control of assay
Wells treated with 0.2% BSA containing PBS instead of recombinant human PARG protein and with dimethyl sulfoxide instead of test compound solution were designated as a Positive Control of assay.
The PARG Inhibitory Activity (%) was determined by the following formulation.
PARG Inhibitory Activity (%)=[(AbsX−AbsA)/(AbsB−AbsA)]×100
(wherein, • AbsA is absorbance (Abs 450) of Negative Control wells • AbsB is absorbance (Abs 450) of Positive Control wells • AbsX is absorbance (Abs 450) of wells treated with test compound.)
In Table, Ex indicates an Example number shown below.
As for `CN(c1ccc(Cn2c(=O)n(Cc3cnn(C)c3)c(=O)c3cc(S(=O)(=O)NC4(C)CC4)sc32)cc1F)C1CC1` [Ex 74], the IC50 came out at 210 nM.
On to `COCCN(C)c1ccc(Cn2c(=O)n(Cc3cnn(C)c3)c(=O)c3cc(S(=O)(=O)NC4(C)CC4)sc32)cc1F` [Ex 75], for which the IC50 came out at 130 nM.
In the case of `CN(CCO)c1ccc(Cn2c(=O)n(Cc3cnn(C)c3)c(=O)c3cc(S(=O)(=O)NC4(C)CC4)sc32)cc1F` [Ex 76], the IC50 was determined as 57 nM.
On the same count and under the same terms, in the case of `COCCNc1ncc(Cn2c(=O)n(Cc3cnn(C)c3)c(=O)c3cc(S(=O)(=O)NC4(C)CC4)sc32)cn1` [Ex 79] it was 70 nM; in that of `Cn1cc(Cn2c(=O)c3cc(S(=O)(=O)NC4(C)CC4)sc3n(Cc3cnc(NCCO)nc3)c2=O)cn1` [Ex 80], 420 nM; in that of `Cn1cc(Cn2c(=O)c3cc(S(=O)(=O)NC4(C)CC4)sc3n(Cc3ccc(N4CCOCC4)nc3)c2=O)cn1` [Ex 81], 200 nM.
The same measure, in the same setting: in the case of `Cn1cc(Cn2c(=O)c3cc(S(=O)(=O)NC4(C)CC4)sc3n(Cc3ccc(N4CCCC4)nc3)c2=O)cn1` [Ex 82] it was 97 nM.
On the same count and under the same terms, in the case of `Cn1cc(Cn2c(=O)c3cc(S(=O)(=O)NC4(C)CC4)sc3n(Cc3ccc(N4CC[C@H](O)C4)nc3)c2=O)cn1` [Ex 83] it was 110 nM; in that of `CO[C@H]1CCN(c2ccc(Cn3c(=O)n(Cc4cnn(C)c4)c(=O)c4cc(S(=O)(=O)NC5(C)CC5)sc43)cn2)C1` [Ex 84], 200 nM.
With `Cn1cc(Cn2c(=O)c3cc(S(=O)(=O)NC4(C)CC4)sc3n(Cc3ccn(C)c(=O)c3)c2=O)cn1` [Ex 85], the 50% inhibitory concentration (IC50) was determined as 110 nM.
On the same count and under the same terms, then `CC(=O)N1CCC(Cn2c(=O)n(Cc3cnn(C)c3)c(=O)c3cc(S(=O)(=O)NC4(C)CC4)sc32)CC1` [Ex 86], with 160 nM; and `CN1CCC(Cn2c(=O)n(Cc3cnn(C)c3)c(=O)c3cc(S(=O)(=O)NC4(C)CC4)sc32)CC1=O` (stereo not drawn) [Ex 87], with 220 nM; and `Cn1cc(Cn2c(=O)c3cc(S(=O)(=O)NC4(C)CC4)sc3n(Cc3ccc(=O)n(C)c3)c2=O)cn1` [Ex 88], with 23 nM.
Still for that read-out and setting: in the case of `COCc1cc2cc(Cn3c(=O)n(Cc4cnn(C)c4)c(=O)c4cc(S(=O)(=O)NC5(C)CC5)sc43)ccc2[nH]1` [Ex 89] it was 13 nM.
Same read-out and setting: in the case of `Cn1cc(Cn2c(=O)c3cc(S(=O)(=O)NC4(C)CC4)sc3n(Cc3ccc(N4CC(O)C4)nc3)c2=O)cn1` [Ex 90] it was 17 nM.
Take `CCC(=O)N1CCC(n2c(=O)n(Cc3cnn(C)c3)c(=O)c3cc(S(=O)(=O)NC4(C)CC4)sc32)CC1` [Ex 93]: the 50% inhibitory concentration (IC50) was 180 nM.
In the case of `COCCC(=O)N1CCC(n2c(=O)n(Cc3cnn(C)c3)c(=O)c3cc(S(=O)(=O)NC4(C)CC4)sc32)CC1` [Ex 94], the 50% inhibitory concentration (IC50) is 270 nM.
On the same count and under the same terms, in the case of `CNCCCC(=O)N1CCC(n2c(=O)n(Cc3cnn(C)c3)c(=O)c3cc(S(=O)(=O)NC4(C)CC4)sc32)CC1` [Ex 96] it was 130 nM.
Turning to `Cc1nc(C)c(Cn2c(=O)n(Cc3cnn(C)c3)c(=O)c3cc(S(=O)(=O)NC4(C#N)CC4)sc32)s1` [Ex 101], the concentration for half-maximal inhibition (IC50) came out at 64 nM.
Same read-out and setting: then `Cn1cc(Cn2c(=O)c3cc(S(=O)(=O)NC4(C#N)CC4)sc3n(Cc3ccc4oc(CO)cc4c3)c2=O)cn1` [Ex 102], with 75 nM; and `Cn1cc(Cn2c(=O)c3cc(S(=O)(=O)NC4(C#N)CC4)sc3n(Cc3ccc(F)cc3)c2=O)cn1` [Ex 103], with 110 nM; and `Cn1cc(Cn2c(=O)c3cc(S(=O)(=O)NC4(C)CC4)sc3n(Cc3ccc4c(n3)COC4)c2=O)cn1` [Ex 109], with 45 nM.
The same measure, in the same setting: in the case of `CC(c1ccc2c(c1)COC2)n1c(=O)n(Cc2cnn(C)c2)c(=O)c2cc(S(=O)(=O)NC3(C)CC3)sc21` (stereo not drawn) [Ex 112] it was 140 nM; in that of `Cc1cc2c(cc1Cn1c(=O)n(Cc3cnn(C)c3)c(=O)c3cc(S(=O)(=O)NC4(C)CC4)sc31)COC2` [Ex 113], 94 nM.
On the same count and under the same terms, then `Cc1cc(Cn2c(=O)n(Cc3cnn(C)c3)c(=O)c3cc(S(=O)(=O)NC4(C)CC4)sc32)cc2c1COC2` [Ex 114], with 34 nM; and `Cc1c(Cn2c(=O)n(Cc3cnn(C)c3)c(=O)c3cc(S(=O)(=O)NC4(C)CC4)sc32)ccc2c1COC2` [Ex 115], with 68 nM.
With `Cn1cc(Cn2c(=O)c3cc(S(=O)(=O)NC4(C)CC4)sc3n(Cc3ccc4[nH]c(CO)cc4c3)c2=O)cn1` [Ex 116], the concentration for half-maximal inhibition (IC50) stood at 15 nM.
Same read-out and setting: then `Cn1cc(Cn2c(=O)c3cc(S(=O)(=O)NC4(C)CC4)sc3n(Cc3cncc(CO)c3)c2=O)cn1` [Ex 117], with 41 nM; and `CN1CCc2ccc(Cn3c(=O)n(Cc4cnn(C)c4)c(=O)c4cc(S(=O)(=O)NC5(C)CC5)sc43)cc2C1=O` [Ex 118], with 120 nM.
The same measure, in the same setting: in the case of `Cn1cc(Cn2c(=O)c3cc(S(=O)(=O)NC4(C)CC4)sc3n(CC34CC(F)(C3)C4)c2=O)cn1` [Ex 119] it was 240 nM; in that of `Cn1cc(Cn2c(=O)c3cc(S(=O)(=O)NC4(C)CC4)sc3n(CCC3(C)COC3)c2=O)cn1` [Ex 120], 120 nM.
Still for that read-out and setting: in the case of `Cn1cc(Cn2c(=O)c3cc(S(=O)(=O)NC4(C)CC4)sc3n(Cc3ccc(F)c(OCCO)c3)c2=O)cn1` [Ex 122] it was 17 nM.
Consider `COc1c(F)cc(Cn2c(=O)n(Cc3cnn(C)c3)c(=O)c3cc(S(=O)(=O)NC4(C)CC4)sc32)cc1F` [Ex 123], for which the IC50 came out at 29 nM.
On the same count and under the same terms, in the case of `CNc1cc(Cn2c(=O)n(Cc3cnn(C)c3)c(=O)c3cc(S(=O)(=O)NC4(C)CC4)sc32)c(F)cc1F` [Ex 124] it was 73 nM; in that of `CNc1c(F)cc(Cn2c(=O)n(Cc3cnn(C)c3)c(=O)c3cc(S(=O)(=O)NC4(C)CC4)sc32)cc1F` [Ex 125], 20 nM; in that of `COC(=O)c1cc(Cn2c(=O)n(Cc3cnn(C)c3)c(=O)c3cc(S(=O)(=O)NC4(C)CC4)sc32)ccc1F` [Ex 126], 45 nM.
The same measure, in the same setting: in the case of `Cn1cc(Cn2c(=O)c3cc(S(=O)(=O)NC4(C)CC4)sc3n(Cc3ccc(F)c(C(=O)N4CCN(C(=O)C5CC5)CC4)c3)c2=O)cn1` [Ex 127] it was 320 nM.
As for `Cn1cc(Cn2c(=O)c3cc(S(=O)(=O)NC4(C)CC4)sc3n(Cc3ccc(Oc4ccc(F)cc4)nc3)c2=O)cn1` [Ex 128], the half-inhibitory concentration (IC50) is 130 nM.
Still for that read-out and setting: then `Cn1cc(Cn2c(=O)c3cc(S(=O)(=O)NC4(C)CC4)sc3n(Cc3nc4c(s3)CCCC4)c2=O)cn1` [Ex 129], with 46 nM; and `Cn1cc(Cn2c(=O)c3cc(S(=O)(=O)NC4(C)CC4)sc3n(Cc3ccc4c(c3)NC(=O)C4)c2=O)cn1` [Ex 131], with 6.3 nM; and `Cn1cc(Cn2c(=O)c3cc(S(=O)(=O)NC4(C)CC4)sc3n(CCc3ccccc3)c2=O)cn1` [Ex 132], with 660 nM.
Take `COc1c(C)cnc(Cn2c(=O)n(Cc3cnn(C)c3)c(=O)c3cc(S(=O)(=O)NC4(C)CC4)sc32)c1C` [Ex 133]: the IC50 came out at 1180 nM.
Still for that read-out and setting: then `Cc1c[nH]c(Cn2c(=O)n(Cc3cnn(C)c3)c(=O)c3cc(S(=O)(=O)NC4(C)CC4)sc32)c(C)c1=O` [Ex 134], with 6040 nM; and `Cc1cc(Cn2c(=O)n(Cc3cnn(C)c3)c(=O)c3cc(S(=O)(=O)NC4(C)CC4)sc32)ccc1F` [Ex 135], with 37 nM.

Source of the values: US20240083908A1, “TETRAHYDROTHIENOPYRIMIDINESULFONAMIDE COMPOUNDS” (priority 2020, published 2024).
